Assay results from patent publication US20260259169A1, “BETA-LACTAMASE SUBSTRATE COMPOUNDS AND ELECTROCHEMICAL DETECTION METHODS USING THEM” (priority 2023, published 2026).

Assays:
OXA-40 [1] = assay: Reactivity with recombinant enzyme, amperometric; assay type: biochemical; settings: class D carbapenemase, protein; CF3 compound 2.4 mM, HMRZ-86 1.2 mM; 10 minutes at 37° C.
OXA-58 [2] = assay: Reactivity with recombinant enzyme, amperometric; assay type: biochemical; settings: class D carbapenemase, protein; CF3 compound 2.4 mM, HMRZ-86 1.2 mM; 10 minutes at 37° C.
VIM-5 = assay: Reactivity with recombinant enzyme, amperometric; assay type: biochemical; settings: class B metallo-beta-lactamase, protein; CF3 compound 2.4 mM, HMRZ-86 1.2 mM; 10 minutes at 37° C.
KPC = KPC (Klebsiella pneumoniae, UniProt Q9F663); assay: Amperometric measurement of oxidation current with KPC in TPTZ buffer; assay type: biochemical; settings: 30 minutes at 37° C.
Procedure: A medium comprising 1.2 mM of substrate in a succinate buffer of pH 5.5 was prepared for each of the 8 beta-lactamase substrate compounds (7 inventive ones and the HMRZ-86 reference one).
4 different samples to be analyzed were prepared, each comprising KPC as beta-lactamase in a standard 2,4,6-tri-2-pyridinyl-1,3,5-triazine (TPTZ) buffer but in different concentrations: 239.4, 59.85, 9.975 and 4.985 ng/ml (ng of KPC per mL of TPTZ buffer). The two first concentrations of KPC aim to determine the capacity of the derivative to detect the presence of beta-lactamase whereas the two lowest concentrations aim to address the limit of detection.
Each of the […] (in other words 32 combinations) and incubated for 30 minutes at 37° C. Next, an amperometric measurement was performed on all 32 of the incubated mediums, and the oxidation current was determined. The device used was a Metrohm Dropsens and the electrodes were Metrohm Dropsens SCPE 110 electrodes. The oxidation current is the maximum current value measured between 0.1 V and 0.5 V vs. Ag/AgCl.
To test the impact of the concentration of the beta-lactamase substrate compound on the possibility to detect beta-lactamases, a further medium comprising 2.4 mM of the beta-lactamase substrate compound with R being 2-nitro-4-cyanophenyl was prepared. […] The same four beta-lactamase concentrations as in Example 1 were tested (i.e. the same samples). The incubation and measurement were performed as in Example 1.
A medium comprising 6.0 mM of each substrate in a succinate buffer of pH 5.5 was prepared. 2 different samples to be analyzed were prepared, each comprising KPC as beta-lactamase type in a standard 2,4,6-tri-2-pyridinyl-1,3,5-triazine (TPTZ) buffer, but in different concentrations: 239.4 ng/ml and 59.85 ng/ml, respectively (ng of KPC per mL of TPTZ buffer). Each of the […] was added to each of the 2 mediums (in other words 6 combinations) and incubated for 30 minutes at 37° C. Next, an amperometric measurement was performed on all 6 of the incubated mediums, and the oxidation current was determined. The equipment used was the same as that of Example 1.

CTX-M-25 = CTX-M-25 (Escherichia coli, UniProt Q8KSA6); assay: Reactivity with recombinant enzyme, amperometric; assay type: biochemical; settings: class A ESBL, protein; CF3 compound 2.4 mM, HMRZ-86 1.2 mM; 10 minutes at 37° C.
CTXM = assay: Amperometric detection of beta-lactamase type producing bacteria strains; assay type: cell-based; settings: 6.0 mM substrate, HMRZ-86 1.2 mM; qualitative
Procedure: (§1) The possibility to detect different beta-lactamase type producing bacteria strains was also tested. As reference, a reference medium comprising 1.2 mM beta-lactamase substrate compound HMRZ-86 was prepared as well.

OXA-58 [3] = assay: as above; assay type: cell-based; settings: 6.0 mM substrate, HMRZ-86 1.2 mM; qualitative
Procedure: as §1

OXA-40 [4] = assay: as above; assay type: cell-based; settings: 6.0 mM substrate, HMRZ-86 1.2 mM; qualitative
Procedure: as §1

OXA-48 = assay: as above; assay type: cell-based; settings: 6.0 mM substrate, HMRZ-86 1.2 mM; qualitative
Procedure: as §1

IMP-18 = assay: Reactivity with recombinant enzyme, amperometric; assay type: biochemical; settings: class B metallo-beta-lactamase, protein; CF3 compound 2.4 mM, HMRZ-86 1.2 mM; 10 minutes at 37° C.
IMP-14 = assay: Reactivity with recombinant enzyme, amperometric; assay type: biochemical; settings: class B metallo-beta-lactamase, protein; CF3 compound 2.4 mM, HMRZ-86 1.2 mM; 10 minutes at 37° C.
[5] = tested on: bacteria strains producing the carbapenemase KPC type; assay: Amperometric detection in blood culture; assay type: cell-based; settings: CF3 6.0 mM, HMRZ-86 1.2 mM
Procedure: The beta-lactamase with group β being CF3 (6.0 mM), as well as the reference HMRZ-86 (1.2 mM) were also tested with blood cultures comprising bacteria strains producing the carbapenemase KPC type, the metallo-beta-lactamase VIM type and the metallo-beta-lactamase NDM type, as well as a blood culture comprising no bacteria strains producing beta-lactamases (negative control ATCC).

IMP-16 = assay: Reactivity with recombinant enzyme, amperometric; assay type: biochemical; settings: class B metallo-beta-lactamase, protein; CF3 compound 2.4 mM, HMRZ-86 1.2 mM; 10 minutes at 37° C.
IMP-22 = assay: Reactivity with recombinant enzyme, amperometric; assay type: biochemical; settings: class B metallo-beta-lactamase, protein; CF3 compound 2.4 mM, HMRZ-86 1.2 mM; 10 minutes at 37° C.
NDM-1 = NDM-1 (Klebsiella pneumoniae, UniProt C7C422); assay: Reactivity with recombinant enzyme, amperometric; assay type: biochemical; settings: class B metallo-beta-lactamase, protein; CF3 compound 2.4 mM, HMRZ-86 1.2 mM; 10 minutes at 37° C.
KPC-3 = KPC-3 (Klebsiella pneumoniae, UniProt Q9F663, H272Y); assay: Reactivity with recombinant enzyme, amperometric; assay type: biochemical; settings: class A carbapenemase, protein; CF3 compound 2.4 mM, HMRZ-86 1.2 mM; 10 minutes at 37° C.
CTX-M-14 = CTX-M-14 (Escherichia coli, UniProt Q9L5C7); assay: Reactivity with recombinant enzyme, amperometric; assay type: biochemical; settings: class A ESBL, protein; CF3 compound 2.4 mM, HMRZ-86 1.2 mM; 10 minutes at 37° C.
IMP-4 = assay: Reactivity with recombinant enzyme, amperometric; assay type: biochemical; settings: class B metallo-beta-lactamase, protein; CF3 compound 2.4 mM, HMRZ-86 1.2 mM; 10 minutes at 37° C.
[6] = tested on: AmpC positive clinical strains; assay: Reactivity with AmpC positive clinical strains, amperometric; assay type: cell-based, 11 different species; settings: 30 strains, colonies in TPTZ buffer, 10 minutes at 37° C.
Procedure: The reactivities of HMRZ-86 and the CF3 (β)/4-cyanophenyl (R) [formula (I)] compounds for enzymes from Ambler classes C (AmpC cephalosporinases) were analyzed with AmpC positive clinical strains previously characterized by sequencing. These strains correspond to 11 different species, 24 different enzymes and 2 mechanisms of enzyme production [HCASE (hyperproductive) and CASEP (plasmid mediated (See Table 2) Table 2 represents the list of AmpC (Ambler class C cephalosporinases) positive clinical strains tested with the HMRZ-86 and the CF3 (β)/4-cyanophenyl (R) [formula (I)] compounds.
Colonies from 30 AmpC positive clinical strains collected from solid culture medium were diluted in a standard TPTZ buffer. […] A negative clinical strain and an positive one (CTX-M) were analyzed as […].

IMP-11 = assay: Reactivity with recombinant enzyme, amperometric; assay type: biochemical; settings: class B metallo-beta-lactamase, protein; CF3 compound 2.4 mM, HMRZ-86 1.2 mM; 10 minutes at 37° C.

| Structure (SMILES) | reactivity (detection) (OXA-40 [1]) | reactivity (detection) (OXA-58 [2]) | reactivity (detection) (VIM-5) | reactivity (detection) (CTX-M-25) | detection (oxidation current) (CTXM) | detection (oxidation current) (OXA-58 [3]) | detection (oxidation current) (OXA-40 [4]) | detection (oxidation current) (OXA-48) | reactivity (detection) (IMP-18) | reactivity (detection) (IMP-14) | detection (oxidation current) [5] | reactivity (detection) (IMP-16) | reactivity (detection) (IMP-22) | reactivity (detection) (NDM-1) | reactivity (detection) (KPC-3) | reactivity (detection) (CTX-M-14) | reactivity (detection) (IMP-4) | reactivity (detection) (IMP-11) | other results |
| --- | --- | --- | --- | --- | --- | --- | --- | --- | --- | --- | --- | --- | --- | --- | --- | --- | --- | --- | --- |
| CC(C)(ON=C(C(=O)N[C@@H]1C(=O)N2C(C(=O)O)=C(C=Cc3ccc([N+](=O)[O-])cc3[N+](=O)[O-])CS[C@H]12)c1csc(N)n1)C(=O)O.O=C(O)C(F)(F)F [HMRZ-86, reference compound] | Not detected | Not detected | Detected | Detected | capable of detecting | does not detect | does not detect | capable of detecting | Detected | Detected | capable of detecting | Detected | Detected | Detected | Detected | Detected | Detected | Detected | detection of the beta-lactamases (oxidation current): KPC concentrations detected (KPC; 1.2 mM substrate, succinate buffer pH 5.5, KPC 239.4, 59.85, 9.975 and 4.985 ng/ml): all 4 concentrations; detection of the beta-lactamase concentration of 9.975 ng/mL (KPC; 1.2 mM substrate, KPC 9.975 ng/mL): could detect; AmpC positive clinical strains detected as positive ([6]; HMRZ-86 1.2 mM): 53.3% |
| N#Cc1ccc(C=CC2=C(C(=O)O)N3C(=O)C(NC(=O)C(F)(F)F)C3SC2)cc1 (stereo not drawn) [CF3] | Detected | Detected | Detected | Detected | capable of detecting | capable of detecting | capable of detecting | capable of detecting | Detected | Detected | capable of detecting | Detected | Detected | Detected | Detected | Detected | Detected | Detected | detection of the lowest tested concentration of KPC (KPC; 6.0 mM substrate, KPC 59.85 ng/ml): capable to detect; detection of the highest concentration of KPC (KPC; 6.0 mM substrate, KPC 239.4 ng/ml): capable to detect; AmpC positive clinical strains detected as positive ([6]; substrate 2.4 mM): All |
